“And” between values parts separate entries of the source, which are not always exact repeats. Equal values may be shown once.
Assays:
[1] = test system: TKCC10 human PDX tumors; experiment: TKCC10 human model, picrosirius red birefringence after three rounds of therapy (Extended Data Fig. 5d); assay type: in vivo, mouse; details: for Quantification of red birefringent (mature) collagen fibres: Extended Data 5D, human PDXs at endpoint after 3 cycles of treatment, individual replicates
Protocol: Subcutaneous PDX studies were performed by implanting early passage PDX pieces (~4 mm^3) or TKCC10 CCs (1.5 × 10^6 cells per mouse in 100 μl PBS/Matrigel 1:1) into female (PDX) or male (TKCC10) 8-week-old immunocompromised nude Balb/c-Fox1nuAusb mice subcutaneously on the left flank. For the duration of the study, mice were kept in conventional caging with environmental enrichment, access to standard chow, water ad libitum and 12-h light–dark cycle at ambient temperature and humidity. Treatment began when tumors reached 150 mm^3, where each mouse was randomized into a treatment group and administered gemcitabine HCl (100 mg kg^−1 in saline) (Jomar Life Research) or vehicle control (0.9% saline) by i.p. injection twice weekly on day 2 and 4 of the treatment cycle until an ethical end point was reached. These included maximal tumor mass ≥10% of body weight, weight loss ≥20% from maximum body weight or tumor interfering with mobility and affecting access to food and water. Animals with non-tumor-related complications that led to a premature end point were censored. […] Tumor size was monitored every second day by calipers. Tumor volume was calculated using the formula (length × width^2)/2. […]
Extended Data Fig. 5 PXS-5505 in combination with gemcitabine in vivo. a. […] Signal is defined as the enzyme activity in the aorta, while noise is measured in the presence of a high concentration (300 µM) BAPN to abolish any lysyl oxidase family activity. […] FITC-dextran (molecular weight: 10 kDa) signal quantification from KPC tumor end point from each treatment group (vehicle n = 3 biologically independent animals, PXS-5505 n = 5 biologically independent animals, Gem n = 5 biologically independent animals, PXS-5505 + Gem n = 5 biologically independent animals). […] P-values determined by Welchs t-test. […] Quantification of red birefringent (mature) collagen fibers from human PDXs at end point after 3 cycles of treatment, treated as indicated. […] P values determined by Welchs t-test. g. […] Quantification of green birefringent (nascent) collagen fibers from human PDXs at end point, treated as indicated. […]

[2] = test system: TKCC10 human PDX tumors; experiment: TKCC10 human model, bulk modulus by unconfined compression (Extended Data Fig. 5e); assay type: in vivo, mouse; design: key to Bulk modulus (stiffness) by unconfined compression testing: bulk elastic modulus in kPa; details: for Bulk modulus (stiffness) by unconfined compression testing: Extended Data 5E, endpoint human PDX tumours, individual animals
Protocol: Unconfined compression of in vivo tissue samples was carried out on 2–3-mm cross-sectional slices using a TA Instruments Dynamic Hybrid Rheometer (DHR-3, TA Instruments). Tissue samples were placed between upper and lower parallel plate geometries. A constant linear compressive rate of 5 µm s^−1 was applied to the samples and axial force (N) and gap (mm) were collected every 0.01 s. Data were processed and a stress–strain curve for each replicate was obtained. Bulk elastic modulus (kPa) was obtained as the gradient of the linear region of the stress–strain curve corrected for cross-sectional area of sample. Data points represent individual biological replicates.
Subcutaneous PDX studies were performed by implanting early passage PDX pieces (~4 mm^3) or TKCC10 CCs (1.5 × 10^6 cells per mouse in 100 μl PBS/Matrigel 1:1) into female (PDX) or male (TKCC10) 8-week-old immunocompromised nude Balb/c-Fox1nuAusb mice subcutaneously on the left flank. For the duration of the study, mice were kept in conventional caging with environmental enrichment, access to standard chow, water ad libitum and 12-h light–dark cycle at ambient temperature and humidity. […] Tumor size was monitored every second day by calipers. Tumor volume was calculated using the formula (length × width^2)/2. […]
Extended Data Fig. 5 PXS-5505 in combination with gemcitabine in vivo. a. […] Signal is defined as the enzyme activity in the aorta, while noise is measured in the presence of a high concentration (300 µM) BAPN to abolish any lysyl oxidase family activity. […] FITC-dextran (molecular weight: 10 kDa) signal quantification from KPC tumor end point from each treatment group (vehicle n = 3 biologically independent animals, PXS-5505 n = 5 biologically independent animals, Gem n = 5 biologically independent animals, PXS-5505 + Gem n = 5 biologically independent animals). […] P-values determined by Welchs t-test. […] Quantification of red birefringent (mature) collagen fibers from human PDXs at end point after 3 cycles of treatment, treated as indicated. […] P values determined by Welchs t-test. g. […]

[3] = TKCC10 model, three rounds of therapy

Compound | Quantification of red birefringent (mature) collagen fibres [1] | tumor fibrillar collagen content (picrosirius red birefringence) [1, 3] | Bulk modulus (stiffness) by unconfined compression testing [2] | tumor bulk stiffness [2, 3]
Nc1ccn([C@@H]2O[C@H](CO)[C@@H](O)C2(F)F)c(=O)n1 [Gem, gemcitabine] | 806 and 284 and 128 and 654 and 1145 and 167 and 291 and 56 and 399 and 263 and 1177 and 403 and 843 and 2660 and 1208 and 745 and 4462 and 5568 and 5319 and 1528 and 2340 and 4185 and 3205 and 2211 and 5904 | increases fibrillar collagen I content | 110.51 and 99.1 and 103.39 and 48.75 and 58.11 | significant increase in tumor bulk stiffness
Cl.Cl.NC/C=C(\F)CS(=O)(=O)c1cccc2cccnc12.O [PXS-5505, (Z)-3-fluoro-4-(quinolin-8-ylsulfonyl)but-2-en-1-amine dihydrochloride monohydrate] | 965 and 112 and 188 and 2 and 295 and 380 and 3894 and 62 and 792 and 254 and 25 and 1015 and 164 and 72 and 282 and 10 and 83 (2×) and 9 and 15 and 1307 and 917 and 737 and 1467 and 503 |  | 8.16 and 16.78 and 14.19 and 5.55 and 12.49 | 

Reference: paper PMC10518255, “A first-in-class pan-lysyl oxidase inhibitor impairs stromal remodeling and enhances gemcitabine response and survival in pancreatic cancer” (Nature Cancer, 2023)
